Read-outs that look alike come from different tables or passages of the source.
Key:
Type in all cases: in vivo, Mycosphaerella graminicola on wheat plants (variety Yuma)
[1] = system: Mycosphaerella graminicola; Anamorph: Septoria tritici; Bayer Code SEPTTR (standard laboratory isolate, SI SEPTTR); test: Type A (high volume) assay, leaf blotch of wheat, standard laboratory SEPTTR isolate (SI SEPTTR); details: standard laboratory isolate, high volume, 50 ppm, wheat (Yuma); for pest or weed control at 50 ppm: Zymoseptoria tritici
Description: (§1) Example A: Evaluation of Fungicidal Activity: Leaf Blotch of Wheat (Mycosphaerella graminicola; Anamorph: Septoria tritici; Bayer Code SEPTTR)
(§2) For Type A assays, technical grades of the experimental fungicides in Table 4 below were dissolved in acetone, and then mixed with nine volumes of water containing 110 ppm Triton X-100. The fungicide solutions were applied onto wheat seedlings using an automated booth sprayer. For Type B assays, emulsifiable concentrate (EC) formulations of technical grades of the experimental fungicides in Table 4 below were prepared at 10% (w/v), and then mixed with 150 volumes of 0.1% Trycol 5941. These solutions were applied onto wheat seedlings using an automated track sprayer at 200 L/ha. All sprayed plants were allowed to air dry prior to further handling.
(§3) Wheat plants (variety Yuma) were grown from seed in a greenhouse in 50% mineral soil/50% soil-less Metro mix until the first leaf was fully emerged, with 7-10 seedlings per pot. Prior to or after application of experimental fungicides, plants were inoculated either with spores of a standard laboratory SEPTTR isolate (SI SEPTTR) or with spores from a SEPTTR field isolate collected from Wellsbourne, England in 2012 (FI SEPTTR). After inoculation the plants were kept for 3 days at 20° C. in 100% relative humidity (one day in a dark dew chamber followed by two days in a lighted dew chamber). Plants were then transferred to a 20° C. greenhouse for disease development. When disease symptoms were fully expressed on untreated plants, infection levels on treated plants were assessed on a scale of 0 to 100 percent disease severity. Percent disease control was calculated using the ratio of disease severity on treated plants relative to untreated plants.

[2] = system: Mycosphaerella graminicola; Anamorph: Septoria tritici; Bayer Code SEPTTR (standard laboratory isolate, SI SEPTTR); test: Type B (low volume, EC formulation, track sprayer 200 L/ha) assay, leaf blotch of wheat, standard laboratory SEPTTR isolate (SI SEPTTR); details: Zymoseptoria tritici, 72 h, standard laboratory isolate, low volume EC, 100 g/ha, wheat (Yuma)
Description: as §1, §2, §3

[3] = Type B (low volume, EC formulation, track sprayer 200 L/ha) assay, leaf blotch of wheat, SEPTTR field isolate (FI SEPTTR); details: Zymoseptoria tritici, 72 h, field isolate, low volume EC, 100 g/ha, wheat (Yuma)
Procedure, shortened: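 Wheat seedlings (Yuma, first leaf emerged) sprayed with acetone/Triton X-100 solutions (Type A) or 10% EC diluted in 0.1% Trycol at 200 L/ha (Type B), inoculated before or after spraying. Inoculated plants held 3 days at 20 °C, 100% RH, then greenhouse; % disease control from severity versus untreated plants.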

[4] = 72 h, 3 Day Curative, read-out: Disease Control, SI SEPTTR Type A Assay (50 ppm) 3 DC
[5] = 3 Day Curative, read-out: Disease Control, SI SEPTTR Type B Assay (100 g/ha) 3 DC
[6] = 3 Day Protectant, read-out: Disease Control, SI SEPTTR Type B Assay (100 g/ha) 3 DP
[7] = 3 Day Curative, read-out: Disease Control, FI SEPTTR Type B Assay (100 g/ha) 3 DC
[8] = 3 Day Protectant, read-out: Disease Control, FI SEPTTR Type B Assay (100 g/ha) 3 DP
[9] = 24 h, 1 Day Protectant, read-out: Disease Control, SI SEPTTR Type A Assay (50 ppm) 1 DP

Structure (SMILES)	pest or weed control at 50 ppm [1, 4] [%]	Disease Control, SI SEPTTR Type A Assay (50 ppm) 1 DP ([1]; 1 Day Protectant)	pest or weed control at 100 g/ha [2, 5] [%]	pest or weed control at 100 g/ha [2, 6] [%]	pest or weed control at 100 g/ha [3, 7] [%]	pest or weed control at 100 g/ha [3, 8] [%]	pest or weed control at 50 ppm [1, 9] [%]
CC(C)C(O)(c1cncnc1)c1ccc(Oc2ccc(C(F)(F)F)cc2)cn1 (stereo not drawn) [Compound 3, 2-methyl-1-(pyrimidin-5-yl)-1-(5-(4-(trifluoromethyl)-phenoxy)pyridin-2-yl)propan-1-ol]	80 to 100	D (<40)	80 to 100	80 to 100	60 to 79	40 to 59	–
CC(C)C(O)(c1cncnc1)c1ccc(Oc2ccc(Cl)cn2)cn1 (stereo not drawn) [Compound 13]	80 to 100	–	60 to 79	80 to 100	40 to 59	60 to 79	80 to 100
OC(c1cncnc1)(c1ccc(Oc2ccc(Cl)cn2)cn1)C1CC1 (stereo not drawn) [Compound 14]	80 to 100	–	60 to 79	60 to 79	40 to 59	60 to 79	80 to 100
OC(c1cncnc1)(c1ccc(Oc2ccc(C(F)(F)F)cc2)cn1)C1CC1 (stereo not drawn) [Compound 17]	80 to 100	–	80 to 100	80 to 100	60 to 79	60 to 79	80 to 100
CC(C)(C)C(O)(c1cncnc1)c1ccc(-c2ccc(OC(F)(F)F)cc2)cn1 (stereo not drawn) [Compound 27, 2,2-dimethyl-1-(pyrimidin-5-yl)-1-(5-(4-(trifluoro-methoxy)phenyl)pyridin-2-yl)propan-1-ol]	80 to 100	–	80 to 100	80 to 100	80 to 100	80 to 100	80 to 100
CC(C)C(O)(Cc1cncnc1)c1ccc(-c2ccc(Cl)cc2)cn1 (stereo not drawn) [Compound 38]	80 to 100	–	80 to 100	80 to 100	80 to 100	40 to 59	80 to 100
OC(Cc1cncnc1)(c1ccc(-c2ccc(Cl)cc2)cn1)C1CC1 (stereo not drawn) [Compound 39]	80 to 100	–	80 to 100	80 to 100	60 to 79	40 to 59	80 to 100
OC(Cc1ccc(Cl)cc1F)(c1cncnc1)c1ccc(Oc2ccc(Cl)cc2)cn1 (stereo not drawn) [Compound 41, 2-(4-chloro-2-fluorophenyl)-1-(5-(4-chlorophenoxy)-pyridin-2-yl)-1-(pyrimidin-5-yl)ethanol]	80 to 100	–	80 to 100	80 to 100	< 40	60 to 79	80 to 100
CC(C)(C)C(O)(Cc1cncnc1)c1ccc(-c2ccc(Cl)cc2)cn1 (stereo not drawn) [Compound 51]	80 to 100	–	40 to 59	60 to 79	60 to 79	60 to 79	80 to 100
CCC(C)(C)C(O)(Cc1cncnc1)c1ccc(-c2ccc(Cl)cc2)cn1 (stereo not drawn) [Compound 57]	80 to 100	–	80 to 100	80 to 100	< 40	< 40	80 to 100
CC(C)(C)C(O)(c1cncnc1)c1ccc(-c2ccc(OC(F)F)cc2)cn1 (stereo not drawn) [Compound 59]	80 to 100	–	80 to 100	80 to 100	80 to 100	80 to 100	80 to 100

Reference: patent publication US10167300B2, “Metalloenzyme inhibitor compounds as fungicides” (priority 2014, dated 2019)
